For eleven compounds, IC50 results are on record in BindingDB's records for doi:10.1021/acs.jmedchem.9b00966 (2019).

Series [1] can be described thus: Reversal of P-gp mediated multidrug resistance in human DU145-TxR cells overexpressing P-gp assessed as potentiation of paclitaxel-induced cytotoxicity by measuring paclitaxel IC50 at 3 uM after 48 hrs by MTT assay (Rvb = 2120 nM). (Formazan colour is commonly taken as a measure of viable cells.)
Series [2] can be described thus: Reversal of P-gp mediated multidrug resistance in human DU145-TxR cells overexpressing P-gp assessed as potentiation of paclitaxel-induced cytotoxicity by measuring paclitaxel IC50 at 7 uM after 48 hrs by MTT assay (Rvb = 2120 nM).
Series [3] in a line: Reversal of P-gp mediated multidrug resistance in human DU145-TxR cells overexpressing P-gp assessed as potentiation of paclitaxel-induced cytotoxicity by measuring paclitaxel IC50 at 5 uM after 48 hrs by MTT assay (Rvb = 2120 nM).
Series [4] in a line: Reversal of P-gp mediated multidrug resistance in human DU145-TxR cells overexpressing P-gp assessed as potentiation of paclitaxel-induced cytotoxicity by measuring paclitaxel IC50 at 10 uM after 48 hrs by MTT assay (Rvb = 2120 nM).

Broadly, the IC50 is the point on the concentration scale where inhibition reaches its midpoint. For `Cc1cc(C)c(-c2cc(NC(=O)CSCC(=O)NC(c3ccccc3)c3ccccc3)n(-c3ccccc3)n2)cc1C`, the IC50 in series [1] is 160 nM; in series [2], 16 nM; in series [3], 56 nM; in series [4], 11 nM.

For the compound `Cc1cc(C)c(-c2cc(NC(=O)CSc3n[nH]c(C4CC4)n3)n(-c3ccccc3)n2)cc1C`, the IC50 in series [1] amounted to 629 nM; in series [2] it was 59 nM; in series [3] it was 194 nM; in series [4] it was 21 nM.

In the case of `Cc1cc(C)c(-c2cc(NC(=O)CSCC(=O)NC34CC5CC(CC(C5)C3)C4)n(-c3ccccc3)n2)cc1C`, the IC50 in series [1] is 231 nM; in series [2], 21 nM; in series [3], 109 nM; in series [4] it was 13 nM.

`Cc1cc(C)c(-c2cc(NC(=O)CSCC(=O)Nc3ccc4ncsc4c3)n(-c3ccccc3)n2)cc1C`: the IC50 in series [1] turned out to be 172 nM; in series [2] it was 2.9 nM; in series [3], 5.7 nM; in series [4] it was 0.78 nM.

Turning to `Cc1cc(C)c(-c2cc(NC(=O)CSCC(=O)c3ccc4c(c3)Cc3ccccc3-4)n(-c3ccccc3)n2)cc1C`, the IC50 in series [1] was determined as 266 nM; in series [2], 62 nM; in series [3] it was 154 nM; in series [4], 57 nM.

Regarding `Cc1cc(C)c(-c2cc(NC(=O)CSCC(=O)N3c4ccccc4CCc4ccccc43)n(-c3ccccc3)n2)cc1C`, the IC50 in series [1] is 164 nM; in series [2] it was 6 nM; in series [3], 52 nM; in series [4] it was 4 nM.

As for `Cc1cc(C)c(-c2cc(NC(=O)CSCC(=O)Nc3ccc4ccccc4c3)n(-c3ccccc3)n2)cc1C`, the concentration for half-maximal inhibition (IC50) in series [1] was 153 nM; in series [2], 7 nM; in series [3], 46 nM; in series [4], 2 nM.

As for `Cc1cc(C)c(-c2cc(NC(=O)CSc3cccc(NC(=O)c4cncc(Br)c4)c3)n(-c3ccccc3)n2)cc1C`, the IC50 in series [1] is 56 nM; in series [2], 9 nM; in series [3] it was 20 nM; in series [4], 6 nM.

For the compound `COc1cc(NC(=O)CSCC(=O)Nc2cc(-c3cc(C)c(C)cc3C)nn2-c2ccccc2)cc(OC)c1OC`, the IC50 turned out to be 185 nM in series [1], 0.64 nM in series [2], 1.9 nM in series [3] and 0.07 nM in series [4].

Regarding `Cc1cc(C)c(-c2cc(NC(=O)CSc3nnc4c(n3)[nH]c3ccccc34)n(-c3ccccc3)n2)cc1C`, the half-inhibitory concentration (IC50) in series [1] came out at 426 nM; in series [2], 17 nM; in series [3], 21 nM; in series [4] it was 17 nM.

Regarding `Cc1cc(C)c(-c2cc(NC(=O)CSCC(=O)NCc3ccc(F)cc3)n(-c3ccccc3)n2)cc1C`, the IC50 came out at 458 nM in series [1], 192 nM in series [2], 379 nM in series [3] and 131 nM in series [4].
